The structures appear in SMILES notation. ≈ marks a conversion by molar mass, not a printed value. Bounds are passed on as bounds.

For the data set the following is noted: buffer; pH 7.4; 200.0 µM.
What is called solubility (kinetic) is solubility judged after dilution from a stock solution rather than from solid. The compound `Cc1cc([N+](=O)[O-])nn1CCCC(=O)NC1CCCCC1` came in with a solubility (kinetic) above 0.0442 mg/mL.

For `CN1CCOCCOCCOCCN(C)C1=S`, the solubility (kinetic) is above 0.0394 mg/mL.

`N/C(=N\OC(=O)c1cccc(F)c1)c1ccccn1` displayed a solubility (kinetic) of 0.0374 mg/mL (≈ 144 µM). The compound `COc1cc(C(=O)Nc2ccc(C(=O)O)cc2)ccc1OC(C)=O` had a kinetic solubility above 0.0494 mg/mL. As for `O=C(COC(=O)c1ccc([N+](=O)[O-])o1)Nc1ncc(Cl)cc1Cl`, the figure is above 0.054 mg/mL; as for `COc1ccc2c(CC(=O)OCc3nc4ccsc4c(=O)[nH]3)coc2c1`, 0.0322 mg/mL (≈ 86.9 µM). Then `CN(C(=O)COC(=O)c1cccc(Cl)c1)C1CCS(=O)(=O)C1` (centres undefined), with above 0.0519 mg/mL; and `COc1ccc(NC(=O)CN(C)CC(=O)NCC2CCCCC2)cc1`, with above 0.0521 mg/mL; and `O=C(CCSc1ccc(Cl)cc1)NCc1ccccn1`, with 0.0408 mg/mL (≈ 133 µM). Then `CCC(C(=O)OC(C)C(=O)Nc1ccc(Cl)cn1)c1ccccc1` (centres undefined), with 0.0169 mg/mL (≈ 48.7 µM); and `COc1ccccc1C(=O)NCC(=O)N1CCN(C/C=C/c2ccccc2)CC1`, with above 0.059 mg/mL; and `COc1ccc(NC(=O)c2ccco2)cc1NC(=O)c1ccccc1`, with 0.0049 mg/mL (≈ 14.6 µM). For `O=C(CN1C(=O)CNC1=O)Nc1cc(Cl)cc(Cl)c1`, the kinetic solubility was above 0.0453 mg/mL. As for `N#Cc1cccc(C(=O)N(CCc2ccccc2)Cc2cccs2)c1`, the figure is 0.0129 mg/mL (≈ 37.2 µM); as for `CCOc1ccc(CCNC(=O)COC(=O)c2ccncc2)cc1OCC`, above 0.0559 mg/mL; as for `CCOC(=O)C1CCCN(CC(=O)Nc2nccs2)C1` (centres undefined), above 0.0446 mg/mL. Then `O=C(CSc1ccccc1F)NCCN1C(=O)CSC1=O`, with 0.0481 mg/mL (≈ 146 µM). `COC(=O)C1CN(C(=O)c2cccc(OC(F)F)c2)c2ccccc2O1` (centres undefined): the kinetic solubility is above 0.0545 mg/mL.

Regarding `Cc1cccc(C(=O)Oc2ccccc2C(=O)N2CCOCC2)c1`, the solubility (kinetic) was above 0.0488 mg/mL. Then `CC(C)(CO)NC(=S)NCc1ccco1`, with above 0.0342 mg/mL; and `CC12CCC(=O)N1C(C(=O)NCCc1ccc(F)cc1)CS2` (centres undefined), with 0.0463 mg/mL (≈ 144 µM).

Compound `COc1ccccc1CNC(=O)CN1C(=O)NC(c2ccccc2)(c2ccccc2)C1=O` registered a kinetic solubility of 0.0031 mg/mL (≈ 7.22 µM).

The compound `CCN(CC(=O)Nc1ccccc1OC)C(=O)CC1CCCC1` yielded a solubility (kinetic) above 0.0478 mg/mL.

`COc1ccc(CNC(=O)CN(c2ccc(C(C)=O)cc2)S(=O)(=O)c2ccc(C)cc2)cc1OC` gave a kinetic solubility of 0.0041 mg/mL (≈ 8.26 µM). As to `CC(C(=O)Nc1cc(Cl)cc(Cl)c1)N1CCCC1` (centres undefined), the kinetic solubility was above 0.0431 mg/mL. As for `CCCCCNC(=O)c1ccc2c(c1)ncn2-c1ccc(OC)cc1`, the figure is 0.0269 mg/mL (≈ 79.7 µM). As to `C=CCNC(=S)N/N=C(\C)c1cccc(NC(C)=O)c1`, the kinetic solubility is above 0.0436 mg/mL. Take `COc1cccc(S(=O)(=O)Nc2cccc(C(=O)N3CCCC3)c2)c1`: the solubility (kinetic) is 0.0479 mg/mL (≈ 133 µM). Then `NC(=O)C1CCN(c2oc(-c3cccs3)nc2S(=O)(=O)c2ccc(Cl)cc2)CC1`, with 0.0519 mg/mL (≈ 115 µM); and `CC(CN1CCOCC1)OC(=O)c1ccc(C(C)(C)C)cc1.Cl` (centres undefined), with 0.0182 mg/mL. Then `Cn1cnc(S(=O)(=O)Nc2ccccc2N2CCOCC2)c1`, with above 0.0484 mg/mL; and `CCOC(=O)c1c(NC(=O)c2ccncc2)sc(C)c1C`, with 0.005 mg/mL (≈ 16.4 µM). Compound `Cn1c(C(=O)N2CCN(c3ccc(F)cc3)CC2)cc2ccccc21` showed a solubility (kinetic) of 0.0028 mg/mL (≈ 8.3 µM). Then `COc1cc(=O)[nH]c(SC(C)C(=O)Nc2cccc3ccccc23)n1` (centres undefined), with 0.0009 mg/mL (≈ 2.53 µM); and `CC1CCCCN1CCn1c(=S)[nH]c2cc3c(cc2c1=O)OCO3` (centres undefined), with above 0.0521 mg/mL; and `COc1cccc(NC(=S)N(C)C2CCN(C)CC2)c1`, with above 0.044 mg/mL. As for `CC(=O)c1cc(C(=O)Nc2ccc3ccccc3c2)c(C)o1`, the figure is 0.0345 mg/mL (≈ 118 µM).

`Fc1cccc(Cl)c1/C=C/c1cnc2ccccc2n1` displayed a kinetic solubility below 0.0003 mg/mL. As for `CN(C)c1ccc2c3c(ccc(N(C)C)c13)C(=O)OC2`, the figure is 0.0366 mg/mL (≈ 135 µM).

In turn, `COc1cccc2cc(C(=O)NCc3ccc(C)cc3)c(=O)oc12` registered a solubility (kinetic) below 0.0007 mg/mL. Then `CCn1c2ccccc2c2cc(CC(N)=O)ccc21`, with 0.008 mg/mL (≈ 31.7 µM); and `COc1cc2c(cc1OC)C(c1ccc([N+](=O)[O-])cc1)NC(=O)C2` (centres undefined), with 0.0456 mg/mL (≈ 139 µM); and `CC1CCCC(C)N1CC(O)COCc1ccccc1F.Cl` (centres undefined), with 0.0456 mg/mL.

`Cc1cccc(OCC(O)CN2CCOCC2)c1.Cl` (centres undefined): the kinetic solubility was above 0.0432 mg/mL. `CCOC(=O)c1c(C)[nH]c(C(=O)NCCN2CCOCC2)c1C` came in with a solubility (kinetic) above 0.0485 mg/mL.

In the case of `O=C(N/N=C/c1cccc(O)c1)c1ccccc1O`, the kinetic solubility is above 0.0384 mg/mL. `O=C1NC(=Nc2cccnc2)S/C1=C/c1ccc(F)cc1`: the kinetic solubility is 0.0007 mg/mL (≈ 2.34 µM). As for `C1CCC2S[C@H]3CCCCC3NC2C1` (some centres undefined), the figure is 0.0253 mg/mL (≈ 120 µM).

Compound `COc1cc2ccccc2cc1C(=O)N1CCCCC1` showed a kinetic solubility above 0.0404 mg/mL. Then `Cc1nn(C)c(C)c1NS(=O)(=O)c1ccc(Cl)cc1`, with above 0.045 mg/mL; and `CSc1ccccc1C(=O)Nc1cccc([N+](=O)[O-])c1C`, with 0.0075 mg/mL (≈ 24.8 µM). In turn, `Cc1cc(C(=O)Nc2ccncc2)ccc1[N+](=O)[O-]` had a kinetic solubility of 0.0184 mg/mL (≈ 71.5 µM). As for `COCCNC(=O)/C(C#N)=C/c1ccc(OCc2ccc(F)cc2)cc1`, the figure is 0.0034 mg/mL (≈ 9.59 µM); as for `Cl.O=C(Cc1ccccc1)NCCN1CCCC1`, above 0.0403 mg/mL; as for `COc1ccc(CCNC(=O)c2ccc(OCc3c(C)noc3C)c(OC)c2)cc1`, 0.0023 mg/mL (≈ 5.6 µM). Then `NC(=O)c1ccc(Nc2ccc3nonc3c2[N+](=O)[O-])cc1`, with 0.0179 mg/mL (≈ 59.8 µM); and `CCOC(=O)CSc1nc(C)c2cc(C)c(C)cc2n1`, with 0.006 mg/mL (≈ 20.7 µM). Then `O=C(COC(=O)c1ccc(F)cc1)Nc1ccc2c(c1)OCO2`, with 0.0045 mg/mL (≈ 14.2 µM). In turn, `O=C(Nc1cccc(S(=O)(=O)N2CCCC2)c1)c1ccc(Cl)nc1` registered a kinetic solubility of 0.0156 mg/mL (≈ 42.6 µM). Then `O=C(COc1ccccc1)Nc1cc2c3c(c1)CC(=O)N3CCC2`, with above 0.0484 mg/mL; and `CCc1ccc(NC(=O)COC(=O)CCC2CCCC2)cc1`, with 0.0079 mg/mL (≈ 26 µM); and `O=[N+]([O-])c1ccc(SCCc2ccncc2)cc1`, with 0.0315 mg/mL (≈ 121 µM). As for `COc1ccc(C2CC(=O)C(C=NCC(C)C)=C(O)C2)cc1` (centres undefined), the figure is 0.0406 mg/mL (≈ 135 µM); as for `O=Cc1c(NCCc2cccc(F)c2)c2ccccc2[nH]c1=O`, 0.0093 mg/mL (≈ 30 µM); as for `CN1CCN(C(=O)CCC(=O)O)CC1`, 0.0265 mg/mL (≈ 132 µM). In the case of `Cc1c(C(=O)Nc2ccccn2)sc2nc3n(c(=O)c12)CCC3`, the solubility (kinetic) amounted to 0.0329 mg/mL (≈ 101 µM). The compound `Cc1cc(SCC(=O)N2CCCC2=O)nc2c(C)cccc12` returned a solubility (kinetic) of 0.0023 mg/mL (≈ 7.32 µM).

In the case of `O=C(COC(=O)CN1C(=O)c2ccccc2C1=O)Nc1ccccc1`, the kinetic solubility is above 0.0507 mg/mL.

The compound `CCCC(=O)Nc1c(C(=O)OCC)oc2ccccc12` had a kinetic solubility above 0.0413 mg/mL. Then `CCCCCCCCOc1ccc(C2CC(=O)NC2=O)cc1` (centres undefined), with below 0.0006 mg/mL; and `CC(C)n1c(SCC(=O)NC2CC2)nnc1C1CC1`, with above 0.0421 mg/mL; and `CCOc1ccc(NC(=S)NCc2cccnc2)cc1`, with above 0.0431 mg/mL.

`CCOc1ccc(C(=O)NNC(=O)CN2C(=O)C3CC=CCC3C2=O)cc1OC` (centres undefined): the solubility (kinetic) is above 0.0602 mg/mL.

Turning to `O=C(c1ccccc1)c1cccc[n+]1[O-]`, the solubility (kinetic) was above 0.0299 mg/mL.

The values above are taken from PubChem BioAssay AID1996.
